Laboratory results: patent publication US5561126A, “4-oxa-1-azabicyclo [3,2,0] heptan-7-one derivatives as antitumor agents” (Taiho Pharmaceutical Co., Ltd., priority 1992, dated 1996)
Values after ≈ are worked out from the molar mass of the structure shown.

Legend:
[1] = system: KB cells; assay: In Vitro KB Cell Cytotoxicity Assay (crystal violet); format: cell-based; conditions: Homo sapiens, 72 h, read-out: Cytotoxicity TD50 KB
Description: KB cells were cultivated in Eagles minimum essential medium supplemented with 10% calf serum and incubated at 37° C. in a humidified 5% CO2 atmosphere to prepare a cell stock. Cells were counted using a neubauer hemocytometer and seeded in 96 well plates at 100 μl of 3×10^4 cells/ml and cultured for one day. […] Control wells were identical except that test compound was absent. These were cultured for three days. […] Then stained with 100 μl of 0.05% crystal violet for 15 minutes, washed with water and dried. The wells were eluted with 100 μl of 0.05M NaH2 PO4 /ethanol (1:1 v/v) and read at OD540 on a multiscan spectrophotometer. TD50 values were calculated using the following formula.

[2] = system: Sarcoma 180; assay: In Vivo Antitumor Activity Against Sarcoma 180; conditions: for Mortality in 12 days: i.p., days 1, 5 and 9
Description: Sarcoma 180, 5×10^6 cells were inoculated by S.C. to male ICR mice (6 weeks old) on day 0. Drugs were administered on days 1, 5 and 9. Mice were killed and tumor weight was measured on day 12 after transplantation. The percentage inhibition of tumor growth was calculated from the mean tumor weight of the treated group compared with that of the control group. Number of mice used in each group was between 6 to 10.

[3] = system: L1210 cells; assay: cells; format: cell-based; conditions: Mus musculus, L1210, 72 h, read-out: Cytotoxicity TD50 L1210
Description: In vitro L1210 cell cytotoxicity assay was done by the method of microculture tetrazolium assay (Alley et al., Cancer Research, 48, 589-601 (1988)). L1210 cells were cultivated in RPMI 1640 medium supplemented with 10% fetal calf serum and […] of 2-mercaptoethanol at 37° C. in humidified 5% CO2 atmosphere to prepare a cell stock. Cells were counted using neubauer hemocytometer and seed in 96 well plates at 100 μl of 0.5×10^4 cells per ml. The test compounds were diluted and 100 μl of the solution was added in triplicate wells to give the final concentration of 10, 5, 1, 0.5 and 0.1 μg/ml. Control wells were identical except that the test compound was absent. These were cultured for three days. Results were assayed using the microculture tetrazolium assay briefly. 50 μl of MTT formazoan working solution (1:5 v/v in culture medium) was added to each well and cultures were incubated at 37° C. for 4 hrs. Culture plates were centrifuged at low speed for 5 minutes. All but 10-20 μl of culture medium supernatant was removed by slow aspiration and replaced by 50 μl of DMSO. The formazoan was dissolved by shaking on a mechanical shaker and read at OD540 on a multiscan spectrophotometer. TD50 values were calculated using the formula: [formula] to give interpolative values between two dilutions.

[4] = Mus musculus, Sarcoma-180, ip, 288 h, read-out: % Inhibition of tumor growth

## CC(=O)OC[C@H]1CN2C(=O)C[C@@H]2O1 (racemic) [compound 4, (3RS, 5SR)-3-Acetoxymethyl-4-oxa-1-azabicyclo[3,2,0]heptan-7-one]
[1]
  CC50: 0.4 µg/mL (≈ 2.16 µM)
[2]; 6.25 mg/kg/day
  Mortality in 12 days: 0/7
[2]; 12.5 mg/kg/day
  Mortality in 12 days: 0/7
[2]; [4]
  inhibition in vivo at 6.25 mg/kg: 64%
  inhibition in vivo at 12.5 mg/kg: 70.7%
[3]
  CC50: 0.4 µg/mL (≈ 2.16 µM)

## O=C1C[C@@H]2O[C@@H](CO)CN12 [compound 40, (3R,5S)-3-Hydroxymethyl-4-oxa-1-azabicyclo[3,2,0]heptan-7-one]
[1]
  CC50: 0.03 µg/mL (≈ 0.21 µM)
[2]; 0.94 mg/kg/day
  Mortality in 12 days: 0/7
[2]; 1.88 mg/kg/day
  Mortality in 12 days: 0/7
[2]; 3.75 mg/kg/day
  Mortality in 12 days: 0/7
[2]; 7.5 mg/kg/day
  Mortality in 12 days: 0/7
[2]; [4]
  inhibition in vivo at 0.94 mg/kg: 56.1%
  inhibition in vivo at 1.88 mg/kg: 63.7%
  inhibition in vivo at 3.75 mg/kg: 69.1%
  inhibition in vivo at 7.5 mg/kg: 77.4%
[3]
  CC50: 0.027 µg/mL (≈ 0.189 µM)

## CCC=CCC=CCC=CCCCCCCCC(=O)OC[C@H]1CN2C(=O)C[C@@H]2O1 (relative stereo) [compound 15]
[1]
  CC50: 0.41 µg/mL (≈ 1.02 µM)
[3]
  CC50: 0.5 µg/mL (≈ 1.24 µM)

## CC=CC=CC(=O)OC[C@H]1CN2C(=O)C[C@@H]2O1 (relative stereo) [compound 14, (3RS, 5SR)-3-(2,4-Hexadienoyloxyymethyl)-4-oxa-1-azabicyclo [3,2,0]heptan-7-one]
[1]
  CC50: 0.3 µg/mL (≈ 1.26 µM)
[3]
  CC50: 0.65 µg/mL (≈ 2.74 µM)

## O=C1C[C@@H]2O[C@@H](C[S+]([O-])c3ccccc3)CN12 (mixture of isomers) [compound 45, (3RS, 5SR)-3-Phenylsulfinylmethyl-4-oxa-1-azabicyclo [3,2,0]heptan-7-one]
[1]
  CC50: 0.3 µg/mL (≈ 1.19 µM)
[3]
  CC50: 0.26 µg/mL (≈ 1.03 µM)

## CCCC(=O)OC[C@H]1CN2C(=O)C[C@@H]2O1 (racemic) [compound 5, (3RS, 5SR)-3-Butyryloxymethyl-4-oxa-1-azabicyclo [3,2,0]heptan-7-one]
[1]
  CC50: 0.3 µg/mL (≈ 1.41 µM)
[3]
  CC50: 0.45 µg/mL (≈ 2.11 µM)

## C#CC(=O)OC[C@H]1CN2C(=O)C[C@@H]2O1 (racemic) [compound 16, (3RS, 5SR)-3-Propynoyloxymethyl-4-oxa-1-azabicyclo[3,2,0]heptan-7-one]
[1]
  CC50: 0.07 µg/mL (≈ 0.359 µM)
[2]; 1.56 mg/kg/day
  Mortality in 12 days: 0/7
[2]; 3.13 mg/kg/day
  Mortality in 12 days: 0/7
[2]; [4]
  inhibition in vivo at 1.56 mg/kg: 45.9%
  inhibition in vivo at 3.13 mg/kg: 53%
[3]
  CC50: 0.04 µg/mL (≈ 0.205 µM)

## CCCCCC(=O)OC[C@H]1CN2C(=O)C[C@@H]2O1 (racemic) [compound 6, (3RS, 5SR)-3-Hexanoyloxymethyl-4-oxa-1-azabicyclo[3,2,0]heptan-7-one]
[1]
  CC50: 0.3 µg/mL (≈ 1.24 µM)
[2]; 13 mg/kg/day
  Mortality in 12 days: 0/6
[2]; 25 mg/kg/day
  Mortality in 12 days: 0/6
[2]; 50 mg/kg/day
  Mortality in 12 days: 0/6
[2]; [4]
  inhibition in vivo at 13 mg/kg: 36.4%
  inhibition in vivo at 25 mg/kg: 61.4%
  inhibition in vivo at 50 mg/kg: 78%
[3]
  CC50: 0.7 µg/mL (≈ 2.9 µM)

## O=COC[C@H]1CN2C(=O)C[C@@H]2O1 (racemic) [compound 3, (3RS, 5SR)-3-Formyloxymethyl-4-oxa-1-azabicyclo[3,2,0]heptan-7-one]
[1]
  CC50: 0.04 µg/mL (≈ 0.234 µM)
[2]; 3.13 mg/kg/day
  Mortality in 12 days: 0/7
[2]; 6.25 mg/kg/day
  Mortality in 12 days: 0/7
[2]; [4]
  inhibition in vivo at 3.13 mg/kg: 27.6%
  inhibition in vivo at 6.25 mg/kg: 55.3%
[3]
  CC50: 0.22 µg/mL (≈ 1.29 µM)

## CCCCCCCCCC(=O)OC[C@H]1CN2C(=O)C[C@@H]2O1 (racemic) [compound 8, (3RS, 5SR)-3-Decanoyloxymethyl-4-oxa-1-azabicyclo[3,2,0]heptan-7-one]
[1]
  CC50: 0.3 µg/mL (≈ 1.01 µM)
[3]
  CC50: 0.37 µg/mL (≈ 1.24 µM)

## O=C1C[C@@H]2O[C@@H](C[S+]([O-])Cc3ccccc3)CN12 (mixture of isomers) [compound 42, (3RS,5SR)-3-Benzylsulfinylmethyl-4-oxa-1-azabicyclo[3,2,0]heptan-7-one]
[1]
  CC50: 0.1 µg/mL (≈ 0.377 µM)
[2]; 50 mg/kg/day
  Mortality in 12 days: 0/7
[2]; [4]
  inhibition in vivo at 50 mg/kg: 64%
[3]
  CC50: 0.3 µg/mL (≈ 1.13 µM)

## O=C(CCl)OC[C@H]1CN2C(=O)C[C@@H]2O1 (racemic) [compound 13, (3RS, 5SR)-3-Chloroacetoxymethyl-4-oxa-1-azabicyclo[3,2,0]heptan-7-one]
[1]
  CC50: 0.5 µg/mL (≈ 2.28 µM)
[3]
  CC50: 0.28 µg/mL (≈ 1.27 µM)

## COc1ccc(C(=O)OC[C@H]2CN3C(=O)C[C@@H]3O2)cc1 (relative stereo) [compound 20]
[1]
  CC50: 0.6 µg/mL (≈ 2.16 µM)
[2]; 3.13 mg/kg/day
  Mortality in 12 days: 0/7
[2]; 6.25 mg/kg/day
  Mortality in 12 days: 0/7
[2]; 12.5 mg/kg/day
  Mortality in 12 days: 0/7
[2]; 25 mg/kg/day
  Mortality in 12 days: 0/7
[2]; [4]
  inhibition in vivo at 3.13 mg/kg: 60%
  inhibition in vivo at 6.25 mg/kg: 68.6%
  inhibition in vivo at 12.5 mg/kg: 59.1%
  inhibition in vivo at 25 mg/kg: 74.1%

## CCCCCCCC(=O)OC[C@H]1CN2C(=O)C[C@@H]2O1 (racemic) [compound 7, (3RS, 5SR)-3-(n-Octanoyloxymethyl)-4-oxa-1-azabicyclo[3,2,0] heptan-7-one]
[1]
  CC50: 0.1 µg/mL (≈ 0.371 µM)
[3]
  CC50: 0.34 µg/mL (≈ 1.26 µM)
